“Also recorded” adds a separate entry of the source.
System: A549 (human lung carcinoma) cell line
Experiment: MTT assay for in vitro cytotoxicity, A549
Format: cell-based
Conditions: 24 h incubation with compound, three independent experiments, read-out: IC50 values against A549 cancer cell line
Description: (§1) The anticancer activity of complexes 1-5 was measured using a similar testing protocol reported earlier (M. Altaf et al., New J. Chem. 2015, 39, 377-385, incorporated herein by reference in its entirety) against a panel of representative human tumor cell lines, which included MCF7 (human breast cancer), HCT15 (human colon adenocarcinoma) and A549 (human lung carcinoma) cell lines. The cells were seeded at 3×10^3 cells/well in 100 μL DMEM containing 10% Fetal Bovine Serum (FBS) in 96-well tissue culture plate and incubated for 72 h at 37° C., 5% CO2 in air and 90% relative humidity in CO2 incubator. After incubation, 100 μL of 50, 25 and 12.5 μM solutions of cisplatin and complexes 1-5 prepared in Dulbecco's Modified Eagle's Medium (DMEM), were added to the cells and the cultures were incubated for 24 h. The medium of wells was discarded and 100 μL DMEM containing MTT (0.5 mg/mL) was added to the wells and incubated in CO2 incubator at 37° C. in dark for 4 h. After incubation, a purple colored formazan produced in the cells appeared as dark crystals in the bottom of the wells. The culture medium was discarded from each well carefully to prevent disruption of monolayer and 100 μL of dimethyl sulfoxide (DMSO) was added in each well. The solution in the wells was thoroughly mixed to dissolve the formazan crystals which produce a purple solution. The absorbance of the 96 well-plates was taken at 570 nm with Lab systems Multiskan EX ELISA reader against a reagent blank. The experimental results were presented as micro-mole concentration of 50% cell growth inhibition (IC50) of each compound. The MTT assay was performed in three independent experiments.
(§2) The synthesized gold(I)-phosphine complexes (1 and 2), gold(I)-dithiocarbamates (3-5) and cisplatin (standard classical anticancer drug) were tested for in vitro cytotoxicity against A549, MCF7 and HCT15 human cancer cell lines using MTT assay. The dose-dependent inhibition of cell proliferation was obtained by specific increase in concentration of tested compounds against fixed number of three human cancer cell lines. […] The highest activity of 4 might be attributed to the strong binding of dithiocarbamate sulfur to gold(I) that would prevent it to interact with plasma proteins in tissues, unlike cisplatin which was strongly bound to plasma proteins through sulfur atoms of thiols (S. Ahmad. Chem. Biodiv. 2010, 7, 543-566, incorporated herein by reference in its entirety).

**Q.** How did the IC50 turn out when [Au2(S2CN(CH7)2)2]n [Complex 5] was run?
**A.** The IC50 was 29.2 ± 1.81 µM.

**Q.** With `N.N.[Cl][Pt][Cl]` [cisplatin, reference compound] as the compound, how does the IC50 read?
**A.** The IC50 was 42.2 ± 2.01 µM.

**Q.** With [Au2(S2CN(CH3)2)2]n [Complex 3] as the compound, how does the IC50 read?
**A.** The IC50 was 304 ± 5.9 µM.

**Q.** For [Au2(S2CN(C2H5)2)2]n [Complex 4], which IC50 is on record?
**A.** The IC50 was 19.6 ± 0.85 µM.

Same assay, conditions: comparison of IC50 values

**Q.** Which “activity against A549 cells, in words (relative to cisplatin / within the series)” value does the source give for [Au2(S2CN(CH3)2)2]n [Complex 3] here?
**A.** The value was “least effective”.

**Q.** How did the “activity against A549 cells, in words (relative to cisplatin / within the series)” value turn out when [Au2(S2CN(C2H5)2)2]n [Complex 4] was run?
**A.** The value was “most active among the series”.

System: HCT15 (human colon adenocarcinoma) cell line
Experiment: MTT assay for in vitro cytotoxicity, HCT15
Format: cell-based
Conditions: 24 h incubation with compound, three independent experiments, read-out: IC50 values against HCT15 cancer cell line
Description: as §1, §2

**Q.** Which IC50 does the source give for [Au2(S2CN(CH7)2)2]n [Complex 5] here?
**A.** Its IC50 is 69.1 ± 3.35 µM.

**Q.** Which IC50 does the source give for `N.N.[Cl][Pt][Cl]` [cisplatin, reference compound] here?
**A.** Its IC50 is 32 ± 2.12 µM.

**Q.** [Au2(S2CN(CH3)2)2]n [Complex 3] was tested. Which IC50 did it give?
**A.** The IC50 was 257 ± 3.39 µM.

**Q.** With [Au2(S2CN(C2H5)2)2]n [Complex 4] as the compound, how does the IC50 read?
**A.** Its IC50 is 38.9 ± 2.38 µM.

Same assay, conditions: comparison of IC50 values

**Q.** [Au2(S2CN(CH3)2)2]n [Complex 3] was tested. Which “antiproliferative potential for HCT15 cells, in words (relative to cisplatin / within the series)” value did it give?
**A.** The value was “least effective”.

**Q.** How did the “antiproliferative potential for HCT15 cells, in words (relative to cisplatin / within the series)” value turn out when [Au2(S2CN(C2H5)2)2]n [Complex 4] was run?
**A.** The value was “comparable to cisplatin; also recorded: most active among the series”.

**Q.** With `NCC[P+]([Au-2][P+](CCN)(c1ccccc1)c1ccccc1)(c1ccccc1)c1ccccc1` [Complex 2, [Au(AEP)2]Cl] as the compound, how does the “antiproliferative potential for HCT15 cells, in words (relative to cisplatin / within the series)” value read?
**A.** Its value is “comparable to cisplatin”.

System: MCF7 (human breast cancer) cell line
Experiment: MTT assay for in vitro cytotoxicity, MCF7
Format: cell-based
Conditions: 24 h incubation with compound, three independent experiments, read-out: IC50 values against MCF7 cancer cell line
Description: as §1, §2

**Q.** With [Au2(S2CN(CH7)2)2]n [Complex 5] as the compound, how does the IC50 read?
**A.** Its IC50 is 76.3 ± 2.52 µM.

**Q.** `N.N.[Cl][Pt][Cl]` [cisplatin, reference compound] was tested. Which IC50 did it give?
**A.** The IC50 was 23.2 ± 3.79 µM.

**Q.** For [Au2(S2CN(CH3)2)2]n [Complex 3], which IC50 is on record?
**A.** Its IC50 is 139 ± 4.51 µM.

**Q.** For [Au2(S2CN(C2H5)2)2]n [Complex 4], which IC50 is on record?
**A.** The IC50 was 48.8 ± 1.96 µM.

Same assay, conditions: comparison of IC50 values

**Q.** [Au2(S2CN(CH3)2)2]n [Complex 3] was tested. Which “antiproliferative potential for MCF7 cells, in words (relative to cisplatin / within the series)” value did it give?
**A.** Its value is “least effective”.

**Q.** For [Au2(S2CN(C2H5)2)2]n [Complex 4], which “antiproliferative potential for MCF7 cells, in words (relative to cisplatin / within the series)” value is on record?
**A.** Its value is “about half with respect to cisplatin; also recorded: most active among the series”.

**Q.** With `NCC[P+]([Au-2][P+](CCN)(c1ccccc1)c1ccccc1)(c1ccccc1)c1ccccc1` [Complex 2, [Au(AEP)2]Cl] as the compound, how does the “antiproliferative potential for MCF7 cells, in words (relative to cisplatin / within the series)” value read?
**A.** The value was “about half with respect to cisplatin”.

From US10494391B2, “Two-component anti-cancer composition” (KING FAHD UNIVERSITY OF PETROLEUM AND MINERALS, priority 2017, dated 2019)
